Measured values reported in patent publication US20110136842A1, “Substituted Dihydroisoquinolinone and Isoquinolinedione Derivatives as Calcium Channel Blockers” (priority 2008, published 2011).

The compounds below were run against T1, Human Cav2.2 channels (Homo sapiens, UniProt Q00975) (assay: Fluorescent assay for Cav2.2 channels using potassium depolarization to initiate channel opening). Settings: assay of Example 1 in the presence of 30 mM potassium (inactivated channel state).
T1 construct: expressed in transfected cells
Type: cell-based
Text: Human Cav2.2 channels were stably expressed in HEK293 cells along with alpha2-delta and beta subunits of voltage-gated calcium channels. An inwardly rectifying potassium channel (Kir2.3) was also expressed in these cells to allow more precise control of the cell membrane potential by extracellular potassium concentration. At low bath potassium concentration, the membrane potential is relatively negative, and is depolarized as the bath potassium concentration is raised. In this way, the bath potassium concentration can be used to regulate the voltage-dependent conformations of the channels. Compounds are incubated with cells in the presence of low (4 mM) potassium or elevated (12, 25 or 30 mM) potassium to determine the affinity for compound block of resting (closed) channels at 4 mM potassium or affinity for block of open and inactivated channels at 12, 25 or 30 mM potassium. After the incubation period, Cav2.2 channel opening is triggered by addition of higher concentration of potassium (70 mM final concentration) to further depolarize the cell. The degree of state-dependent block can be estimated from the inhibitory potency of compounds after incubation in different potassium concentrations.
Calcium influx through Cav2.2 channels is determined using a calcium-sensitive fluorescent dye in combination with a fluorescent plate reader. Fluorescent changes were measured with either a VIPR (Aurora Instruments) or FLIPR (Molecular Devices) plate reader.
• 1. Seed cells in Poly-D-Lysine Coated 96- or 384-well plate and keep in a 37° C.-10% CO2 incubator overnight • 2. Remove media, wash cells with 0.2 mL (96-well plate) or 0.05 mL (384-well plate) Dulbecco's Phosphate Buffered Saline (D-PBS) with calcium & magnesium (Invitrogen; 14040) • 3. […] Read cell plate on VIPR instrument, Excitation=480 nm, Emission=535 nm • 9. With VIPR continuously reading, add 0.1 mL (96-well plate) or 0.03 mL (384-well plate) of Depolarization Buffer, which is 2× the final assay concentration, to the cell plate.

T1 sequence (Q00975 whole entry): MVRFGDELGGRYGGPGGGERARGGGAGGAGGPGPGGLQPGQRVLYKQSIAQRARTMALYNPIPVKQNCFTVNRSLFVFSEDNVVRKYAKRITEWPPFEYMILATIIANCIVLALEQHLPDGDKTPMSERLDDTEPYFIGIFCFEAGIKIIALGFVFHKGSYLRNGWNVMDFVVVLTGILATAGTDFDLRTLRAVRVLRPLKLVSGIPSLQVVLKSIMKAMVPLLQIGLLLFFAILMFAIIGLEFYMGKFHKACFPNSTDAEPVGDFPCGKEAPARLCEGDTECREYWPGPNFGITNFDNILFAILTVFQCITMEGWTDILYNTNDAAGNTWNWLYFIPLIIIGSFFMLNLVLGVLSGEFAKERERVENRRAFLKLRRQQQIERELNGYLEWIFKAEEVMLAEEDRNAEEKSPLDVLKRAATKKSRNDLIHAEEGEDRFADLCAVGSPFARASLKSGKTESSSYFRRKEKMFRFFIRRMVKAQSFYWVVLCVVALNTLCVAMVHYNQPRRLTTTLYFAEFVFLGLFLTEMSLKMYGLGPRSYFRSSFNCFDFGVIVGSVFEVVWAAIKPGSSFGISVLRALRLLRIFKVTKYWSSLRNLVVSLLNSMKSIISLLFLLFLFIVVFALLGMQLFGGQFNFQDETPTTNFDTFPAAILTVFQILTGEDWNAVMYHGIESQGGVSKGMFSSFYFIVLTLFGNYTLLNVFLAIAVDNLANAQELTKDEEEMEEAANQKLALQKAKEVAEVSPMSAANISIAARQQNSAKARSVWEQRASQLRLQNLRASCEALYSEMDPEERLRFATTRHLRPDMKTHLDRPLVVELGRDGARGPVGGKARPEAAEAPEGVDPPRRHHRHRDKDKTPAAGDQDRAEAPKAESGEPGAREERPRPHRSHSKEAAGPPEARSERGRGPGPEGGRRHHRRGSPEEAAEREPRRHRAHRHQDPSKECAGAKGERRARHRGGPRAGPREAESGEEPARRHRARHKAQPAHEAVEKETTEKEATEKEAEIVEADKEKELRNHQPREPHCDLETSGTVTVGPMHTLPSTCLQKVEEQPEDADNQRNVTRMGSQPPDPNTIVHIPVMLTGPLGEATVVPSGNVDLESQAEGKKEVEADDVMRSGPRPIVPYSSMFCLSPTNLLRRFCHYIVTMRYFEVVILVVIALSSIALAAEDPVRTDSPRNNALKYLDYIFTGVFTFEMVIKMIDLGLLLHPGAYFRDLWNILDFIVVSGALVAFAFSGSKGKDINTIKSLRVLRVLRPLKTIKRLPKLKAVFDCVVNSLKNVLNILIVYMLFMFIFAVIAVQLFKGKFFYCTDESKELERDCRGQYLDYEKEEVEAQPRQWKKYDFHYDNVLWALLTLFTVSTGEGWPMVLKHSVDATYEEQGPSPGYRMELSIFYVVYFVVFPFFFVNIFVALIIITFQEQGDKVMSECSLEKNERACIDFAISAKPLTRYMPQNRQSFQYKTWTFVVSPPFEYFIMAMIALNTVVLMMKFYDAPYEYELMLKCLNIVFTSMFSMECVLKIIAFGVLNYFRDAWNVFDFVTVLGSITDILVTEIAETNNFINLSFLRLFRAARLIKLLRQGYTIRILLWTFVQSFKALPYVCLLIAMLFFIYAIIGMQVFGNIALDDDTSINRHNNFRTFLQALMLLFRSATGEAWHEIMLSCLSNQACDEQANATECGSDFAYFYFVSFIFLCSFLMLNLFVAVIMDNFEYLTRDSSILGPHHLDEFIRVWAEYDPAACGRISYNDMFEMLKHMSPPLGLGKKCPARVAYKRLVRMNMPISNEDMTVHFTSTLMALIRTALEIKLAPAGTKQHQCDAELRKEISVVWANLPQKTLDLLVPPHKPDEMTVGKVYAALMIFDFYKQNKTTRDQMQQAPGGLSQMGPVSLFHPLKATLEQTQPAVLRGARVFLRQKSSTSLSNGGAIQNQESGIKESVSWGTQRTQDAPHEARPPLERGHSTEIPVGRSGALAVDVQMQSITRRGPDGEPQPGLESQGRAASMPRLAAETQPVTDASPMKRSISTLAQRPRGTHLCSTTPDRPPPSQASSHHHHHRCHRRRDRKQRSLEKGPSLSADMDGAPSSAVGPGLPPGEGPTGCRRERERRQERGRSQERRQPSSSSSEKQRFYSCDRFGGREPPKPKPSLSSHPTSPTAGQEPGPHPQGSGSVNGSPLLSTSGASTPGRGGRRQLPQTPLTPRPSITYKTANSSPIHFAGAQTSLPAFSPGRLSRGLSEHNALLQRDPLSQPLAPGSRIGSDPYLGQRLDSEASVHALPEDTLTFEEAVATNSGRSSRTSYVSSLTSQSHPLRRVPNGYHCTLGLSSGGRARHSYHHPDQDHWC

IC50 [nM]	SMILES
230	CC1(Cc2cc(F)cc(F)c2F)C(=O)NCc2ccc(-c3cccc(OCC(F)(F)F)c3)cc21 (stereo not drawn) [Example 1, 4-methyl-4-(2,3,5-trifluorobenzyl)-6-[3-(2,2,2-trifiuoroethoxy)phenyl]-1,4-dihydroisoquinolin-3(2H)-one]
260	CC1(Cc2cc(F)cc(F)c2F)C(=O)NC(=O)c2ccc(-c3cccc(OCC(F)(F)F)c3)cc21 (stereo not drawn) [Example 2, 4-methyl-4-(2,3,5-trifluorobenzyl)-6-[3-(2,2,2-trifluoroethoxy)phenyl]isoquinoline-1,3(2H,4H)-dione]
20	Cn1cnc(N2Cc3ccc(-c4cccc(OCC(F)(F)F)c4)cc3C(C)(Cc3cc(F)cc(F)c3F)C2=O)c1 (stereo not drawn) [Example 3, 4-methyl-2-(1-methyl-1H-imidazol-4-yl)-4-(2,3,5-trifluorobenzyl)-6-[3-(2,2,2-trifiuoroethoxy)phenyl]-1,4-dihydroisoquinolin-3(2H)-one]
